These results are taken from patent US20250188110A1, “SPECIFIC SMALL MOLECULE INHIBITORS THAT BLOCK KMT9 METHYLTRANSFERASE ACTIVITY AND FUNCTION” (ALBERT-LUDWIGS-UNIVERSITÄT FREIBURG, priority 2021, published 2025).

A value given as a limit tells only on which side of the number the result lay.

For experiment [1], the target named is T1, KMT9 (Homo sapiens, UniProt Q9Y5N5).
T1 sequence (Q9Y5N5 1-214): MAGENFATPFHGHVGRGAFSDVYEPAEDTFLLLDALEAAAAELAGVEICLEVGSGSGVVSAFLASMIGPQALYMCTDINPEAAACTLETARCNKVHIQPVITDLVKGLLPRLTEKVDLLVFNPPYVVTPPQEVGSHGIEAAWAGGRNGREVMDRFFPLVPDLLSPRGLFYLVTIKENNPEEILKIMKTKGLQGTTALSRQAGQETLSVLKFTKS
T1 sequence (Q9UI30 1-120 isoform Q9UI30-2 partner): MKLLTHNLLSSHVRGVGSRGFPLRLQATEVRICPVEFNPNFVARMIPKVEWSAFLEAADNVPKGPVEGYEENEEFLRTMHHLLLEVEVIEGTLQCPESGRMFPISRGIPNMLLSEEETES
Put plainly: KMT9 thermal shift assay (SyproOrange). Type of experiment: binding. The conditions noted are these: ΔTm; 500 µM compound, 2 μM KMT9, 5X SO; read-out: Thermal shift. The method, then:
The assay was carried out in 96-well Hard-Shell PCR plates (Bio-Rad Laboratories Inc.). Assay buffer consisted of 50 mM BTP, 1 mM MgCl2 and 1 mM DTT at a pH of 8.5 (adjusted using 1 M HCl and 1 M NaOH). 20X inhibitor stock (in DMSO), 2X enzyme stock and 4X SyproOrange (SO) stock (both in assay buffer) were prepared. 1 μL of 20X compound, 4 μL of assay buffer, 10 μL of 2X KMT9 and 5 μL of 4X SO were pipetted. For the no-compound control, 20X inhibitor stock was replaced by DMSO. The final volume was 20 μL. The plate was spun down at 700 rpm for 1 min using a Hettich UNIVERSAL 320 centrifuge and incubated at 25° C., shaking at 600 rpm. After incubation, the plate was spun down for 1 min at 700 rpm and measurement was conducted using a CFX96 Touch Real-Time PCR Detection System (Bio-Rad Laboratories Inc.). The plate was equilibrated at 20° C. for 4 min and then heated stepwise at a rate of 1° C. per 15 s until 95° C. After every step, fluorescence was measured in FRET mode. Calculation of melting points was conducted by a Boltzman sigmoidal model using GraphPad Prism 7.0.
For the results of the thermal shift assay shown as “Thermal shift” in Table 1, “++++” represents a ΔTm of greater 20 K, “+++” represents a ΔTm of greater than 15 K and less than or equal to 20 K (15 K<ΔTm≤20 K); “++” represents a ΔTm of greater than 10 K and less than or equal to 15 K (10 K<ΔTm ≤ 15 K); “+” represents a ΔTm of equal to or less than 10 K (ΔTm≤10 K).

Experiment [2] has as its target T1, KMT9. Put plainly: KMT9 methyltransferase inhibition assay, 3H-SAM scintillation (entries 1-154). It is filed as biochemical. The conditions noted are these: entries 1-154: 3H-SAM assay, 25 nM KMT9, 5 μM ETF1. The method, then:
The assay was carried out in 0.5 mL Eppendorf tubes in duplicates. Assay buffer consisted of 50 mM BTP, 1 mM MgCl2, 1 mM DTT and 0.01% Triton-X^100 at a pH of 8.5 (adjusted using 1 M HCl and 1 M NaOH). 20X inhibitor stock (in DMSO), 2X enzyme stock and 4X substrate mix (both in assay buffer) were prepared. The substrate mix consisted of Tritium-labelled S-adenosylmethionine (3H-SAM), S-adenosylmethionine (SAM) and eukaryotic peptide chain release factor subunit1 (Homo sapiens, residues 140-275)(ETF1). Final assay concentrations were set to 25 nM KMT9, 0.3 μM 3H-SAM, 0.7 µM SAM and 5 μM ETF1. […] 5 μL of 4x substrate mix was added to initiate the reaction. The final reaction volume was 20 μL. For the positive control, the compound of formula (I) was replaced by DMSO; for the negative control, the compound of formula (I) was replaced by DMSO and KMT9 was replaced by assay buffer. The reaction mix was incubated in an Eppendorf thermomixer comfort at 30° C. for 2 h, shaking at 300 rpm. The reaction was quenched using 5 μL 50% trichloroacetic acid (TCA) and incubated at 25° C. for 5 minutes. 22 μL of the mixture was transferred into 96-well MultiScreen@HTS FB filter plates (Merck KGaA, Darmstadt, Germany) and washed four times with 10% TCA and two times with 100% ethanol. The plate was dried overnight, the filters were transferred into individual 6 mL Pony Vials (Perkin Elmer Inc, Waltham, MA, USA) and incubated in 3 mL of Ultima Gold scintillation cocktail (Perkin Elmer Inc, Waltham, MA, USA) for 30 minutes. The scintillation signal was measured for 3x 1 min using TriCarb 2910 TR (Perkin Elmer) scintillation counter in 3H CPM mode (LL: 0, UL: 18.6). Inhibition was calculated using the following formula: […]
With xc: signal of compound, Xpos: mean signal of positive control, Xneg: mean signal of negative control. Data fitting was carried out by GraphPad 7.0 using nonlinear fit ([Inhibitor]vs. response-variable slope (four parameters)).
For the results of the methyltransferase inhibition assay shown as “Inhibition” in Table 1, “I” represents an IC50 less than 0.1 μM, “II” represents an IC50 equal or higher than 0.1 μM and less than 1 μM, “III” represents an IC50 equal or higher than 1 µM and less than 10 µM and “IV” represents an IC50 equal or higher than 10 µM

The target in experiment [3] is T1, KMT9. Put plainly: Microscale thermophoresis (MST) KMT9 binding. Conditions: microscale thermophoresis, His-tag labelled KMT9 (20 nM); read-out: MST. The method, then: To determine the binding affinity of the compounds according to the present invention and KMT9, microscale thermophoresis (MST) analysis was performed with a NanoTemper Monolith NT.115 instrument (NanoTemper Technologies GmbH). KMT9 was labelled with a RED-Tris-NTA labelling kit (NanoTemper Technologies GmbH) based on the manufacturer's instructions. Buffer including 25 mM HEPES (pH 7.5), 100 mM NaCl, 1 mM DTT and 0.05% Tween was used for the reaction buffer. Varying concentrations of the tested compounds of formula (I) as indicated in Table 1 were titrated against His-tag labelled KMT9 proteins (20 nM). Samples were loaded into standard Capillaries (NanoTemper Technologies GmbH) and MST measurements were performed using 40% MST power and 100% LED power. For each set of binding experiments, MST measurement was carried out with Binding Affinity module in MO.Control program under Nano-RED Excitation. Datasets were processed with the MO.Affinity Analysis software (NanoTemper Technologies GmbH).
For the results of the microscale thermophoresis (MST) assay shown as “MST” in Table 1, “A” represents a Kd of equal to or less than 10 nM (Kd≤10 nM); “B” represents a Kd of greater than 10 nM and equal to or less than 100 nM (10 nM<Kd<100 nM); “C” represents a Kd of greater than 100 nM and equal to or less than 1000 nM (100 nM<Kd ≤ 1000 nM); “D” represents a Kd of greater than 1000 nM (1000 nM<Kd).
On the technique in general: MST reads how a fluorescent partner responds to local heating, with and without ligand.

As a reminder, the IC50 is the concentration that inhibits the measured activity by half. Low readings indicate greater potency, high ones weaker potency. In the case of `Cc1cn([C@@H]2C[C@H](CNCCCNCCc3ccccc3)[C@@H](O)[C@H]2O)c2ncnc(N)c12` [467 (341), (1R,2S,3R,5R)-3-(4-Amino-5-methyl-7H-pyrrolo[2,3-d]pyrimidin-7-yl)-5-(((3-(phenethylamino)propyl)amino)methyl) cyclopentane-1,2-diol], the ΔTm at 500 µM on KMT9 [1] is 10 to 15 °C. At KMT9 [2], the IC50 was 1000 to 10000 nM. Besides, on KMT9 [3], the Kd was 100 to 1000 nM.
The matching figures for `CNc1ncnc2c1ccn2[C@@H]1C[C@H](CN(CCCNCCc2ccccc2)CC(F)(F)F)[C@@H](O)[C@H]1O` [330 (234), (1R,2S,3R,5R)-3-(4-(methylamino)-7H-pyrrolo[2,3-d]pyrimidin-7-yl)-5-(((3-(phenethylamino)propyl)(2,2,2-trifluoroethyl)amino)methyl) cyclopentane-1,2-diol]: ≤ 10 °C, > 10000 nM and 100 to 1000 nM.
On the same counts, the results for `CCc1cn([C@@H]2C[C@H](CNCCCNCCc3cccc(Oc4ccccc4)c3)[C@@H](O)[C@H]2O)c2ncnc(N)c12` [459 (332), (1R,2S,3R,5R)-3-(4-Amino-5-ethyl-7H-pyrrolo[2,3-d]pyrimidin-7-yl)-5-(((3-((3-phenoxyphenethyl)amino)propyl)amino)methyl) cyclopentane-1,2-diol] are 15 to 20 °C, 1000 to 10000 nM and 10 to 100 nM.
The matching figures for `Nc1ncnc2c1c(Br)cn2[C@@H]1C[C@H](CN2CC(CNCCc3ccccc3)C2)[C@@H](O)[C@H]1O` [484 (358), (1R,2S,3R,5R)-3-(4-Amino-5-bromo-7H-pyrrolo[2,3-d]pyrimidin-7-yl)-5-((3-((phenethylamino)methyl)azetidin-1-yl)methyl) cyclopentane-1,2-diol]: 15 to 20 °C, 100 to 1000 nM and 10 to 100 nM.
With `CNC(=O)[C@H]1C[C@@H](n2cc3c4c(ncnc42)NCCC3)[C@H](O)[C@@H]1O` [Compound 624, (1S,2R,3S,4R)-2,3-Dihydroxy-N-methyl-4-(6,7,8,9-tetrahydro-2H-2,3,5,6-tetraazabenzo[cd]azulen-2-yl)cyclopentane-1-carboxamide], the ΔTm at 500 µM on KMT9 [1] was ≤ 10 °C. Moreover, on KMT9 [2], the IC50 was > 10000 nM. Also, the Kd at KMT9 [3] was > 1000 nM.
On the same counts, the results for `CN1CCC(c2cn([C@@H]3C[C@H](CNCCCNCCc4ccccc4)[C@@H](O)[C@H]3O)c3ncnc(N)c23)CC1` [480 (354), (1R,2S,3R,5R)-3-(4-Amino-5-(1-methylpiperidin-4-yl)-7H-pyrrolo[2,3-d]pyrimidin-7-yl)-5-(((3-(phenethylamino)propyl)amino)methyl) cyclopentane-1,2-diol] are ≤ 10 °C, 1000 to 10000 nM and > 1000 nM.
The matching figures for `Nc1ncnc2c1ncn2[C@@H]1O[C@H](CNCCCNCc2ccc3ccccc3c2)[C@@H](O)[C@H]1O` [323 (226), (2R,3R,45,5R)-2-(6-amino-9H-purin-9-yl)-5-(((3-((naphthalen-2-ylmethyl)amino)propyl)amino)methyl)tetrahydrofuran-3,4-diol]: ≤ 10 °C, > 10000 nM and > 1000 nM.
The matching figures for `CNc1ncnc2c1ccn2[C@@H]1C[C@H](CN(CCCNCCc2ccccc2)c2cc[nH]n2)[C@@H](O)[C@H]1O` [444 (316)]: ≤ 10 °C, 1000 to 10000 nM and > 1000 nM.
Take `CNc1ncnc2c1ccn2[C@@H]1C[C@H](CN2CCCCC23CCNC3)[C@@H](O)[C@H]1O` (stereo partly drawn) [448 (320), (1S,2R,3R,5R)-3-{2,6-diazaspiro[4.5]decan-6-ylmethyl}-5-[4-(methylamino)pyrrolo[2,3-d]pyrimidin-7-yl]cyclopentane-1,2-diol]: at KMT9 [1], the ΔTm at 500 µM is ≤ 10 °C. In addition, the half-maximal inhibitory concentration (IC50) at KMT9 [2] is > 10000 nM. The Kd at KMT9 [3] was > 1000 nM.
Regarding `O=S(=O)(c1ccccc1)n1ccc(-c2cn([C@@H]3C[C@H](CNCCCNCCc4ccccc4)[C@@H](O)[C@H]3O)c3ncncc23)n1` [Compound 614, (1S,2R,3R,5R)-3-(((3-(Phenethylamino)propyl)amino)methyl)-5-(5-(1-(phenylsulfonyl)-1H-pyrazol-3-yl)-7H-pyrrolo[2,3-d]pyrimidin-7-yl)cyclopentane-1,2-diol], at KMT9 [1], the ΔTm at 500 µM was 10 to 15 °C. This compound showed an IC50 against KMT9 [2] of 1000 to 10000 nM. For the same compound, the Kd at KMT9 [3] lay within 100 to 1000 nM.
On to `CNc1ncnc2c1ccn2[C@@H]1C[C@H](COCC(=O)NCCc2ccccc2)[C@@H](O)[C@H]1O` [689 (298), 2-(((1R,2R,3S,4R)-2,3-Dihydroxy-4-(4-(methylamino)-7H-pyrrolo[2,3-d]pyrimidin-7-yl)cyclopentyl)methoxy)-N-phenethylacetamide], for which the ΔTm at 500 µM at KMT9 [1] is ≤ 10 °C. The IC50 against KMT9 [2] was > 10000 nM. In addition, the Kd at KMT9 [3] was > 1000 nM.
The matching figures for `CNc1ncnc2c1ccn2[C@@H]1C[C@H](CS(=O)(=O)CCCNCCc2ccccc2)[C@@H](O)[C@H]1O` [429 (301), (1R,2S,3R,5S)-3-(4-(Methylamino)-7H-pyrrolo[2,3-d]pyrimidin-7-yl)-5-(((3-(phenethylamino)propyl)sulfonyl)methyl) cyclopentane-1,2-diol]: ≤ 10 °C, > 10000 nM and > 1000 nM.
